Results on two compounds are retold here after ChEMBL document CHEMBL5537169, “Structure-Activity Relationships and Discovery of (S)-6-Isopropyl-2-methoxy-3-(3-methoxypropoxy)-10-oxo-5,10-dihydro-6H-pyrido[1,2-h][1,7]naphthyridine-9-carboxylic Acid (AB-452), a Novel Orally Available HBV RNA Destabilizer” (J Med Chem, 2024).

Data set [1] is described as follows: Cardiotoxicity in Langendorff-perfused New Zealand White rabbit heart assessed as increase in QRS interval upto 10 uM incubated for 45 mins by ECG analysis. Conditions: 0.75 h. The class given is toxicity, tissue-based, Oryctolagus cuniculus.
Data set [2] can be described thus: Toxicity in dog assessed as NOAEL administrated for 28 days. The arrangement: species or system Canis lupus familiaris. The settings on record: in vivo, time 28 day.
For data set [3], the system named is Hepatitis B virus. The data set can be described thus: Antiviral activity against AAV-Hepatitis B virus infected in C57BL/6 mouse assessed as serum HBsAg level at 3 mg/kg,po administrated once daily for 7 days by enzyme-linked immunoassay. The class given is functional. The settings on record: time 7 day.
The test system of data set [4] is Hepatitis B virus. Put plainly: Antiviral activity against AAV-Hepatitis B virus infected in C57BL/6 mouse assessed as serum HBsAg level at 30 mg/kg,po administrated once daily for 7 days by enzyme-linked immunoassay. The class given is functional. The settings on record: time 7 day.
Data set [5] has as its system Hepatitis B virus. Put plainly: Antiviral activity against AAV-Hepatitis B virus infected in human Primary hepatocyte assessed as reduction in HBsAg level measured after 16 days by ELISA. The settings on record: 384 h. The class given is functional, organism-based. A general note: In an ELISA, binding on a coated surface is turned into a signal by an enzyme label.
Data set [6] has as its system Hepatitis B virus. The data set can be described thus: Antiviral activity against AAV-Hepatitis B virus infected in human Primary hepatocyte assessed as reduction in HBeAg level measured after 16 days by ELISA. Format: functional, organism-based. The settings on record: 384 h.
A short description of data set [7]: Apparent volume of distribution at steady state in CD-1 mouse at 10 mg/kg,po measured at 0.083 to 24 hrs post administration by LC-MS/MS analysis. The class given is ADME, organism-based. The settings on record: in vivo, time 0.083-24 hrs.
Data set [8] can be described thus: Tmax in CD-1 mouse at 10 mg/kg,po measured at 0.083 to 24 hrs post administration by LC-MS/MS analysis. The class given is ADME, organism-based. The settings on record: in vivo, time 0.083-24 hrs.
Data set [9] can be described thus: Drug accumulation in CD-1 mouse liver at 10 mg/kg,po measured at 0.083 to 24 hrs post administration by LC-MS/MS analysis. The settings on record: in vivo, time 0.083-24 hrs. Format: ADME, organism-based.
Data set [10] can be described thus: Apparent volume of distribution at steady state in Sprague-Dawley rat at 10 mg/kg,po measured at 0.083 to 24 hrs post administration by LC-MS/MS analysis. Format: ADME, organism-based. Conditions: in vivo, time 0.083-24 hrs.

Regarding `COCCCOc1cc2c(nc1OC)-c1cc(=O)c(C(=O)O)cn1[C@H](C(C)C)C2`, the figures for the Activity result (in data set [1]; in the data set with Hepatitis B virus [3]; in the data set with Hepatitis B virus [4]) were “Non-Toxic”, 0.74 log10CFU and 1.78 log10CFU, respectively. Moreover, the no-observed-adverse-effect level (NOAEL) at 672 h in data set [2] turned out to be 30 mg/kg. Also, the EC50 with Hepatitis B virus [5] and with Hepatitis B virus [6] was 3 nM each time.

Regarding `COCCCOc1cc2c(cc1Cl)-c1cc(=O)c(C(=O)O)cn1[C@H](C(C)C)CO2`, the figures for the “Vdss(app)” value in data set [7] and in data set [10] were 1.1 L/kg and 0.4 L/kg, respectively. For the same compound, the time of peak concentration (Tmax) in [8] is 4.1 h. In data set [9], the Ct worked out at 425 ng/g.

As a reminder, the NOAEL is the highest dose or exposure tested at which no adverse effect was seen. Broadly, the EC50 is the concentration needed to bring the measured effect to its halfway point. The Tmax is the time at which the peak concentration occurs.
